Laboratory results taken from patent US8455640B2, “Process for statins and its pharmaceutically acceptable salts thereof” (MSN Laboratories Limited, priority 2006, dated 2013).

Test: solubility of the calcium salt in aqueous methanol / methanol
Assay type: physicochemical

solubility in an aqueous methanol (calcium salt prepared by the present invention (calcium acetate as calcium source)): freely soluble
solubility in an aqueous methanol (calcium salt prepared by the prior art process (U.S. Pat. No. 5,260,440; sodium chloride byproducts)): poor solubility
Compound: CC(C)c1nc(N(C)S(C)(=O)=O)nc(-c2ccc(F)cc2)c1/C=C/[C@@H](O)C[C@@H](O)CC(=O)[O-].CC(C)c1nc(N(C)S(C)(=O)=O)nc(-c2ccc(F)cc2)c1/C=C/[C@@H](O)C[C@@H](O)CC(=O)[O-].[Ca+2] [formula (1a), rosuvastatin calcium]
